The results in this text go back to US4758586A, “Indolyl compounds and hyposensitivity use thereof” (USV Pharmaceutical Corp., priority 1986, dated 1988).

SMILES strings stand for the structures. pIC50: −log10 of the molar value.

One assay deals with Phospholipase C (PLC). The assay is described as follows: In vitro assay for inhibitors of Phospholipase C (PLC) from rat platelets. It counts as biochemical. From the text:
A. Protocol For In Vitro Assay For Inhibitors Of Phospholipase C (PLC)
The PLC employed in this screen is obtained by aggregation of purified rat platelets in the presence of CaCl2 and ADP. In the enzyme assay phosphatidylinositol having ^3 H -labeled arachidonate residues at R2 is employed as substrate. PLC acts by cleaving the phosphate ester bond yielding diglyceride as follows: [drawing 18]
Following completion of the reaction, the assay medium is acidified and extracted with hexane which takes up unreacted substrate and diglyceride. The hexane extract is passed over a short silica gel column which retains 99% of the phosphatidylinositol. The ^3 H-labeled diglyceride is not retained […]. The diglyceride is conveniently quantitated by liquid scintillation spectrometry.
The compounds were tested at 300 u in a buffer containing 0.06 mM unlabeled phosphatidylcholine (PC), 20-30,000 cpm of (CPC), 150 mM NaCl, 5 mM CaCl2 and 50 mM tris(hydroxymethyl)methylaminopropanesulfonic acid buffer, adjusted to pH 9.0 with 1N NaOH. The temperature of the buffer was maintained at a temperature of 37° C. The reaction was initiated by addition of the enzyme and it was terminated 10 minutes later by addition of 1 ml of 1N HCl.
Following acidification, the samples were extracted with 2 ml of isopropyl alcohol and 2 ml of hexane, vortexed and allowed to stand until the phases separate. […] and some unreacted substrate were taken up in the isopropanol-saturated hexane. The hexane phase of the extraction mixture was transferred to a short silica gel column which retains unreacted phosphatidylinositol, but not the 3H-diglyceride. The column effluent was collected directly in scintillation vials. The columns were washed once with additional 2 ml of hexane. The radiolabelled diglycerides were quantitated by liquid scintillation.

A further assay concerns the target T1, Phospholipase A2 (PLA2) (Rattus norvegicus, UniProt P14423).
T1 construct: obtained by aggregation of purified rat platelets; from tissue; host or cells: rat platelets (enzyme obtained by aggregation)
T1 sequence (P14423 22-146): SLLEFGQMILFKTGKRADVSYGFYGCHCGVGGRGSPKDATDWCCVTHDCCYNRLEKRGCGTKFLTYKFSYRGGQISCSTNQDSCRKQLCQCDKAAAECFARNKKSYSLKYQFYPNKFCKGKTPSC
The experiment in a line: In vitro assay for inhibitors of Phospholipase A2 (PLA2) from rat platelets. It counts as biochemical. The text has this: B. In Vitro Assay For Inhibitors of Phospholipase A2 Assayed at pH 7.0 (PLA2)
The PLA2 employed in this screen is obtained by aggregation of purified rat platelets. In the enzyme assay phosphatidylcholine having ^14 C-labeled palmitate residues at R1 and R2 is employed as substrate. PLA2 acts by cleaving the R2 fatty acid ester bond yielding free fatty acid and lysophosphatidyl choline as follows: [drawing 19]
Following completion of the reaction, the assay medium is acidified and extracted with hexane, which takes up unreacted substrate and free fatty acid product. The hexane extract is passed over a short silica column which retains 99% of the phosphatidyl choline. The ^14 C-labeled palmitic acid is not retained (90% recovery in eluate) and is collected directly in scintillation counting vials. The released palmitic acid is conveniently quantitated by liquid scintillation spectrometry.
The compounds were tested at 100 uM in a buffer containing 0.3 mM unlabeled phosphatidylcholine (PC), 20-30,000 cpm of ^14 C(CPC), […], 1 mM CaCl2 and 50 mM tris-HCl adjusted to pH 7.2 with 1N NaOH. […] The temperature of the buffer was maintained at a temperature of 37° C. The reaction was initiated by addition of the enzyme and it was terminated 30 minutes later by the addition of […] of 1N HCl.
Following acidification, the samples were extracted with 2 ml of 2-propanol and 2 ml of hexane, vortexed and allowed to stand until the phases separated. Free fatty acids (FFA) and some unreacted substrate were taken up in the isopropanol-saturated hexane. The hexane phase of the extraction mixture was transferred to a short silica gel column which retained […] but not the FFA. The column effluent was collected directly in scintillation vials. The columns were washed once with an additional 2 ml of hexane. The radio labeled FFA were quantitated by liquid scintillation spectrometry.

Assay [1] concerns leukotriene C4 -induced contraction of guinea pig peripheral strips. The assay is described as follows: SRS-A antagonists (SALTI): leukotriene C4-induced contraction of guinea pig peripheral lung strips. The following applies: Cavia porcellus; 0.2 μM leukotriene C4-induced contraction; read-out: SALTI, I50 μM. How it is done:
Protocol for SRS-A (Slow-reacting Substance of Anaphylaxis Antagonists (SALTI)
Peripheral strips of guinea pig lungs are prepared and hung in tissue baths (Metro #ME-5505, 10 ml) according to the published procedure (Pro. Nat'l. Acad. Sci., U.S.A. Volume 77, pp. 4354-4358, 1980). The strips are thoroughly rinsed in Assay Buffer and then connected with surgical silk thread to the support rods from the tissue baths. The rods are adjusted in the baths and the strips connected to the pressure transducers (Grass FT 103 or Gould UC-3). The tissue baths are aerated with 95% oxygen 5% carbon dioxide and maintained at 37° C. The Assay Buffer has been made as follows: For each liter of buffer the following are added to approximately 800 ml of water distilled in glass--6.87 g. NaCl, 0.4 g. KCl, […]. NaHCO3, 0.14 g. NaH2 PO4.H2 O, 0.21 g. MgSO4.7H2 O, and 2.0 g. D-glucose. Then a solution of 0.368 g. CaCl2.2H2 O in 100 ml glass-distilled water is slowly added to the buffer. Sufficient water is added to adjust the volume to one liter, and the solution is aerated with 95% oxygen--5% carbon dioxide. Usually 10 liters of buffer are used for an experiment with 4 tissues.
After the tissues have been repeatedly washed and allowed to equilibrate in the tissue bath, they are challenged with 1 μM histamine. After maximum contractions have been obtained, the tissues are washed, and allowed to relax back to baseline tension. This histamine challenge procedure is repeated at least 1 to 2 more times to obtain a repeatable control response. The average response to 1 μM histamine for each tissue is used to normalize all other challenges.
Responses of each tissue to a predetermined concentration of leukotriene are then obtained. Usually test compounds are examined initially at 30 μM on resting tension of the tissues without any added agonist or antagonist to determine if the compound has any possible intrinsic activity. The tissues are washed, and the test compound is added again. Leukotriene is added after the desired pre-incubation time. The intrinsic activity of the compounds, and their effect on leukotriene-induced contractions are then recorded.
The concentration required for 50% inhibition of 0.2 μM leukotriene C4 -induced contraction of guinea pig peripheral strips for representative compounds of the present invention is shown in Table 3.

A further assay concerns the target T2, 5-lipoxygenase (Rattus norvegicus, UniProt P12527).
T2 construct: A suspension of rat neutrophils in buffer; endogenous in cells; host or cells: rat neutrophils (PMN)
T2 sequence (P12527 1-673): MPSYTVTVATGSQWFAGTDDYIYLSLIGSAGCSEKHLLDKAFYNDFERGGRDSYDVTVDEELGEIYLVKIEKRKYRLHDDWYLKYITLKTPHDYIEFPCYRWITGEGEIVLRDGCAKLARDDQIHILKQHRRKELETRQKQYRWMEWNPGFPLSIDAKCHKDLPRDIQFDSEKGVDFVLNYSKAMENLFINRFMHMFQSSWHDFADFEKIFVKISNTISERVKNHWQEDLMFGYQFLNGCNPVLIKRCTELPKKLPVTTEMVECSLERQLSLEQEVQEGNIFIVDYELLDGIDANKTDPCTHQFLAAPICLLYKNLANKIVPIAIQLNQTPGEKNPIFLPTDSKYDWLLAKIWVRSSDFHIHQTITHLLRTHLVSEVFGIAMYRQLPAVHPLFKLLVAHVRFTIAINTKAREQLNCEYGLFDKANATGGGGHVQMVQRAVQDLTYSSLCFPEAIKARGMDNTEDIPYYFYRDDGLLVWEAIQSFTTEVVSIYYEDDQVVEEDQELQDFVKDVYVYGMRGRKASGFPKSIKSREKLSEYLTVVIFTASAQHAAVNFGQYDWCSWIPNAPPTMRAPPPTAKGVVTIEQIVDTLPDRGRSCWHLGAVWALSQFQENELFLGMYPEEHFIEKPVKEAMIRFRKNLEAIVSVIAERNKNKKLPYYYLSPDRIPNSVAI
The experiment in a line: Protocol for detecting inhibitors of the lipoxygenase pathway (5-HETE formation in rat neutrophils). The settings on record: Formula III, n=1 compounds; read-out: LOX I50 (Table 5). Format: cell-based. How it is done:
Protocol for Detecting Inhibitors of the Lipoxygenase Pathway
A suspension of rat neutrophils in buffer is incubated for 3 minutes at 30° C. with [^14 C]-arachidonic acid (AA) and Calcium Ionophore A23187. Citric acid (2M) is used to quench the reaction. Following the addition of a trace amount of (^3 H)-5-HETE together with an excess of unlabeled 5-HETE to each tube, the mixture is extracted with chloroform/methanol. The organic layer is washed with dilute acid and an aliquot is transferred to glass tubes and dried. The residue is dissolved in a small volume of chloroform and an aliquot is spotted on silica get TLC sheets, which are developed with an ethyl acetate/isooctane/water acetic acid solvent system. The 5-HETE spots are visualized with iodine, cut out and placed in scintillation vials for counting. After adjusting for the extraction efficiency, the amount (pmole) of [^14 C]-5-HETE in each of the tubes is quantitated. The net pmoles of 5-HETE are obtained by subtracting the pmoles of 5-HETE in the tubes containing […]. The ability of the test compounds to modulate the activity of this enzyme is determined by a decrease or increase in the net amount of 5-HETE produced.

Regarding `Cc1c(C=CC=CC(=O)O)c2ccccc2n1Cc1ccccc1` [Example 12, 5-(1-Benzyl-2-methylindol-3-yl)-2,4-Pentadienoic Acid], the pIC50 with Phospholipase C (PLC) (read-out: PLC, I50) is 4.40; on Phospholipase A2 (PLA2) (pH 7.2, 37° C., read-out: PLA2, I50), 4.43; in assay [1], 4.82.

Regarding `CCOC(=O)C=Cc1c[nH]c2ccccc12` [Ethyl β-(indol-3-yl)acrylate, reference compound], the “PLC activity class (Table 5)” value with Phospholipase C (PLC) (at level tested (300 u)) is given as “I”. Further, the pIC50 at 5-lipoxygenase was 5.10. Moreover, at Phospholipase A2 (PLA2) (at level tested (100 uM)), the “PLA2 activity class (Table 5)” value is on record as “I”.
